In EP1133986A1, “Use of deramciclane for the treatment of anxiety and depression” (priority 2000, dated 2001):
Where two headings read alike, the source gives them in different places.

Columns and labels:
[1] = design: species or system human; details: in vivo
Protocol: A comparative pharmacokinetic study of orally administered deramciclane in rats, dogs, rabbits and humans (Klebovich et al Pharm. Pharmacol. Commun., 4: 129-136, 1998), it was shown that the plasma concentration curves obtained after the administration of a single 3mg/kg oral dose of deramciclane to rats (dogs, rabbits) and human show considerable species specific differences. […] Thus a 40-times lower oral dose of deramciclane could be used in man to result in the same maximal plasma concentration as in rat. […] Thus over 300 times lower oral doses should result in equal exposure in humans than in rats. Basing only the Cmax difference between rat and man, it can be predicted that considerably lower doss should be centrally acitive in humans than in rat. The minimum oral effective anti-anxiety dose in rats was 1 mg/kg (1-30mg/kg the full range; see above), i.e. in a 70 kg-man this would mean 70 mg dose. […] This would result in 70 mg/40= 1.75 mg (i.e. 0.025 mg/kg) as an effective dose in man.

[2] = system: rats; details: single intraperitoneal administration; cited from earlier work
[3] = system: mice; details: oral doses 48-160 mg/kg; cited from earlier work
[4] = system: mice; details: single subcutaneous administration, 3 mg/kg; cited from earlier work
[5] = system: anxiety, specifically GAD; test: randomised placebo-controlled double-blind study in GAD, Hamilton Anxiety Scale (HAM-A); format: in vivo, humans; details: GAD patients
Protocol: (§1) The efficacy of deramciclane in the treatment of anxiety, specifically GAD, was studied in a randomised placebo-controlled double-blind study. In addition, the dose-dependency of the effects of deramciclane was evaluated. Total of 208 patients were included in the study. The subjects were randomly assigned to four parallel groups to receive one tablet twice daily (b.i.d) of a placebo, 5mg (=10mg/day), 15mg (=30mg/day), or 30mg (=60mg/day) deramciclane. The study started with a one-week placebo run-in period, followed by an eight-week placebo-controlled active treatment and a two-week placebo washout period.
The efficacy of deramciclane on anxiety symptoms was studied by the efficacy variable Hamilton Anxiety Scale (HAM-A), analyzing the change in the score and using responder criterion (at least 50 % reduction in HAM-A total score).

[6] = human, cited from earlier work
[7] = biological target: T1, serotonin 5-HT2C-receptor (Homo sapiens, UniProt P28335); details: cited from earlier work
T1 sequence (P28335 33-458): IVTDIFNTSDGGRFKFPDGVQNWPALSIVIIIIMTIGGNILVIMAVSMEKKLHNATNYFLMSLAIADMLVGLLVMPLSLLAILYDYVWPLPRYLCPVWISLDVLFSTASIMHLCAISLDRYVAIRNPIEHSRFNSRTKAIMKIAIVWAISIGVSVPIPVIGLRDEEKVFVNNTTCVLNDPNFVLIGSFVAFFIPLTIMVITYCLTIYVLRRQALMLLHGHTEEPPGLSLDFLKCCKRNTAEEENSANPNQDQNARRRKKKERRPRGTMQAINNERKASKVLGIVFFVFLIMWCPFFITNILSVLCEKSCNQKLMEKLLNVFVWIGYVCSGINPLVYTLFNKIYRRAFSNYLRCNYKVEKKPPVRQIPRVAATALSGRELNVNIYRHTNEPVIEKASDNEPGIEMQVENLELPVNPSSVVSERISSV

[8] = system: rats; details: oral doses of 25 and 100 mg/kg; cited from earlier work
[9] = biological target: T2, serotonin 5HT2A-receptor (Homo sapiens, UniProt P28223); details: cited from earlier work
[10] = system: rats; details: cited from earlier work
[11] = system: rats; details: cited from earlier work; remark: listed apart in the source
[12] = system: depressive symptoms; test: randomised placebo-controlled double-blind study in GAD, Montgomery Åsberg Depression Rating Scale (MADRS); format: in vivo, humans; details: GAD patients
Protocol: as §1
The efficacy of deramciclane on depressive symptoms was studied using Montgomery Åsberg Depression Rating Scale (MADRS).

[13] = system: rat; details: intraperitoneally 1 or 10 mg/kg, 8 times, twice a day, before the test; cited from earlier work
[14] = biological target: T2, serotonin 5HT2A-receptor; design: serotonin 5-HT2A-receptors in frontal cortex of healthy male volunteers; from tissue; host or cells: frontal cortex of living healthy male volunteers; details: humans, brain 5HT2A-receptor, single oral dose; cited from earlier work
[15] = rats, 3 mg/kg, cited from earlier work
[16] = rat, cited from earlier work
[17] = humans, cited from earlier work; for Cmin and Cmax range: repeated administration for one week
[18] = single oral administration, 3 mg/kg

T2 sequence (P28223 whole entry): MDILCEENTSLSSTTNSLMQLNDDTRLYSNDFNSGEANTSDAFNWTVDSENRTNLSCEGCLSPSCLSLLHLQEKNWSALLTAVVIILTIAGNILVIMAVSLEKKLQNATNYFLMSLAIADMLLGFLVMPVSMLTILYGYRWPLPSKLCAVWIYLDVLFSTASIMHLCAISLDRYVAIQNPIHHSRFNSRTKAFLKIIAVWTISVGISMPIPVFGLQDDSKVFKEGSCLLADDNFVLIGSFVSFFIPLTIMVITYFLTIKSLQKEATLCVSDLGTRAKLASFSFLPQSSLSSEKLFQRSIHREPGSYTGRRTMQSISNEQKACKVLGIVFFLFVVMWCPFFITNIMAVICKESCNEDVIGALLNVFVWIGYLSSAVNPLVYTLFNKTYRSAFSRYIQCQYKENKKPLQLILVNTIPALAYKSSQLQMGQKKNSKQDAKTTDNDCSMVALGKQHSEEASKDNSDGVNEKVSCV

## CN(C)CCO[C@]1(c2ccccc2)C[C@H]2CC[C@]1(C)C2(C)C [deramciclane, (lR,2S,4R)-(-)-2-[N,N-(dimethylaminoethoxy)]-2-phenyl-1,7,7-trimethyl-bicyclo[2.2.1]heptane]
[1]
  factor by which oral dose in man can be lower for the same maximal plasma concentration as in rat: 40 times
  factor by which oral doses in humans can be lower for equal exposure as in rats: over 300 times
[2]
  minimum effective dose (social interaction time): 0.7 mg/kg
[3]
  effect on tetrabenazine-induced ptosis: negligible
[4]
  activity in two compartment test: active
[5]; 5 mg b.i.d, eight weeks
  HAM-A score compared with placebo: No difference
[5]; 5 mg b.i.d. (n=31), placebo 54 %
  responders (at least 50 % reduction in HAM-A scale): 57%
[5]; 15 mg b.i.d, eight weeks, p=0.006 versus placebo
  decrease of HAM-A score from baseline: 14.5 points
[5]; 15 mg b.i.d. (n=39), p=0.020 versus placebo
  responders (at least 50 % reduction in HAM-A scale): 76%
[5]; 30 mg b.i.d. (n=37)
  responders (at least 50 % reduction in HAM-A scale): 70%
[5]; 30 mg b.i.d., eight weeks, not significant versus placebo
  decrease of HAM-A score from baseline: 14.5 points
[6]; single 3 mg/kg oral dose
  peak plasma concentration (Cmax): 217.5 ng/mL
[6]; [18]
  mean AUC 0 - ∞: 3737.8 ng·h/mL
[7]
  antagonism of the receptor: potent antagonist
[7]; in vitro
  binding affinity: high affinity
[8]
  effect in forced swimming test: clearly ineffective
[9]
  antagonism of the receptor: potent antagonist
[9]; in vitro
  binding affinity: high affinity
[10]; intraperitoneal dose of 0.5 mg/kg
  caerulein-induced decrease in exploratory behavior: able to attenuate
[10]; rats, single intraperitoneal doses 0.1 mg/kg - 5 mg/kg
  effect in elevated plus maze test: totally ineffective
[11]; oral
  minimum oral effective anti-anxiety dose: 1 mg/kg
[11]; single oral administration, 1 mg/kg and 10 mg/kg
  activity in punished drinking test: active
[12]; 5 mg b.i.d
  effect on MADRS scores: ineffective
[12]; 15mg b.i.d, p= 0.028
  decrease of MADRS scores: 7.7 points
[12]; 30 mg b.i.d, p= 0.016
  decrease of MADRS scores: 8.0 points
[13]
  helpless behaviour induced by inescapable electric foot shocks: dose dependently attenuated
[14]
  plasma concentration at 50% receptor occupancy: ~21 ng/mL
  plasma concentration at 90% receptor occupancy: about 70 ng/ml
[15]; intravenous administration
  radioactivity in several organs including blood and the brain: high radioactivity
[15]; oral administration, compared with intravenous
  radioactivity in organs, especially in the brain: substantially lower
[16]; single 3 mg/kg oral dose
  peak plasma concentration (Cmax): 5.4 ng/mL
[16]; [18]
  mean AUC 0 - ∞: 11.9 ng·h/mL
[17]; 20 mg daily dose
  Cmin and Cmax range: 16 to 33 ng/mL
[17]; 60 mg daily dose
  Cmin and Cmax range: 48 to 91 ng/mL
[17]; single oral administration of 20 mg
  Cmax: 24 ± 9.4 ng/mL
[17]; single oral administration of 30 mg
  Cmax: 27 ± 6.1 ng/mL
